± gives the expanded uncertainty stated by the source.
Assay: relative permittivity at various frequencies (dimensionless)
Settings: Liquid, Frequency=0.01 MHz, Parallel plate capacitor

Work on `CC(F)(F)F` [1,1,1-trifluoroethane] yielded a relative permittivity (218.12 K, 2000 kPa) of 16.968 ± 0.035, a relative permittivity (218.13 K, 3000 kPa) of 17.006 ± 0.035 and a relative permittivity (218.16 K, 4000 kPa) of 17.043 ± 0.035. It also gave a relative permittivity (218.17 K, 5000 kPa) of 17.076 ± 0.035, a relative permittivity (218.18 K, 11000 kPa) of 17.303 ± 0.034 and a relative permittivity (218.19 K, 6000 kPa) of 17.111 ± 0.035. The relative permittivity (218.21 K, 7000 kPa) was 17.147 ± 0.034, the relative permittivity (218.22 K, 10000 kPa) was 17.264 ± 0.034 and the relative permittivity (218.23 K, 8000 kPa) was 17.184 ± 0.034. For the same molecule, the relative permittivity (218.23 K, 9000 kPa) was 17.224 ± 0.035, the relative permittivity (218.24 K, 12000 kPa) was 17.326 ± 0.034 and the relative permittivity (218.43 K, 13000 kPa) was 17.338 ± 0.034. It also gave a relative permittivity (218.45 K, 14000 kPa) of 17.37 ± 0.034, a relative permittivity (218.48 K, 15000 kPa) of 17.403 ± 0.034 and a relative permittivity (223.96 K, 15000 kPa) of 16.732 ± 0.034. It also gave a relative permittivity (223.97 K, 13000 kPa) of 16.66 ± 0.034, a relative permittivity (223.97 K, 14000 kPa) of 16.696 ± 0.034 and a relative permittivity (223.98 K, 12000 kPa) of 16.622 ± 0.034. For the same molecule, the relative permittivity (224 K, 2000 kPa) was 16.227 ± 0.034, the relative permittivity (224 K, 3000 kPa) was 16.267 ± 0.034 and the relative permittivity (224 K, 4000 kPa) was 16.308 ± 0.034. The relative permittivity (224 K, 5000 kPa) was 16.349 ± 0.034, the relative permittivity (224 K, 6000 kPa) was 16.389 ± 0.034 and the relative permittivity (224 K, 7000 kPa) was 16.432 ± 0.034. For the same molecule, the relative permittivity (224 K, 8000 kPa) was 16.486 ± 0.034, the relative permittivity (224 K, 9000 kPa) was 16.506 ± 0.034 and the relative permittivity (224 K, 10000 kPa) was 16.547 ± 0.034. The relative permittivity (224 K, 11000 kPa) was 16.582 ± 0.034, the relative permittivity (232.97 K, 14000 kPa) was 15.659 ± 0.033 and the relative permittivity (232.97 K, 15000 kPa) was 15.697 ± 0.033. For the same molecule, the relative permittivity (232.98 K, 13000 kPa) was 15.622 ± 0.033, the relative permittivity (232.99 K, 9000 kPa) was 15.465 ± 0.033 and the relative permittivity (232.99 K, 10000 kPa) was 15.503 ± 0.033. The relative permittivity (232.99 K, 12000 kPa) was 15.581 ± 0.033, the relative permittivity (233 K, 6000 kPa) was 15.343 ± 0.033 and the relative permittivity (233 K, 7000 kPa) was 15.387 ± 0.033. For the same molecule, the relative permittivity (233 K, 8000 kPa) was 15.424 ± 0.033, the relative permittivity (233 K, 11000 kPa) was 15.543 ± 0.033 and the relative permittivity (233.01 K, 2000 kPa) was 15.164 ± 0.033. The relative permittivity (233.01 K, 3000 kPa) was 15.207 ± 0.033, the relative permittivity (233.01 K, 4000 kPa) was 15.253 ± 0.033 and the relative permittivity (233.01 K, 5000 kPa) was 15.298 ± 0.033. For the same molecule, the relative permittivity (243.15 K, 14000 kPa) was 14.59 ± 0.031, the relative permittivity (243.15 K, 15000 kPa) was 14.629 ± 0.031 and the relative permittivity (243.16 K, 2000 kPa) was 14.061 ± 0.032. It also gave a relative permittivity (243.16 K, 3000 kPa) of 14.108 ± 0.032, a relative permittivity (243.16 K, 4000 kPa) of 14.158 ± 0.032 and a relative permittivity (243.16 K, 5000 kPa) of 14.203 ± 0.032. For the same molecule, the relative permittivity (243.16 K, 6000 kPa) was 14.254 ± 0.032, the relative permittivity (243.16 K, 7000 kPa) was 14.298 ± 0.032 and the relative permittivity (243.16 K, 9000 kPa) was 14.386 ± 0.032. The relative permittivity (243.16 K, 10000 kPa) was 14.43 ± 0.031, the relative permittivity (243.16 K, 11000 kPa) was 14.469 ± 0.031 and the relative permittivity (243.16 K, 12000 kPa) was 14.51 ± 0.031. It also gave a relative permittivity (243.16 K, 13000 kPa) of 14.552 ± 0.031, a relative permittivity (243.17 K, 8000 kPa) of 14.34 ± 0.032 and a relative permittivity (253.13 K, 2000 kPa) of 13.05 ± 0.031. The relative permittivity (253.13 K, 6000 kPa) was 13.264 ± 0.031, the relative permittivity (253.13 K, 8000 kPa) was 13.362 ± 0.03 and the relative permittivity (253.13 K, 9000 kPa) was 13.407 ± 0.03. It also gave a relative permittivity (253.13 K, 15000 kPa) of 13.669 ± 0.03, a relative permittivity (253.14 K, 3000 kPa) of 13.106 ± 0.031 and a relative permittivity (253.14 K, 4000 kPa) of 13.16 ± 0.031. It also gave a relative permittivity (253.14 K, 5000 kPa) of 13.209 ± 0.031, a relative permittivity (253.14 K, 7000 kPa) of 13.311 ± 0.031 and a relative permittivity (253.14 K, 10000 kPa) of 13.455 ± 0.03. For the same molecule, the relative permittivity (253.14 K, 11000 kPa) was 13.5 ± 0.03, the relative permittivity (253.14 K, 12000 kPa) was 13.543 ± 0.03 and the relative permittivity (253.14 K, 14000 kPa) was 13.628 ± 0.03. The relative permittivity (253.15 K, 13000 kPa) was 13.585 ± 0.03, the relative permittivity (263.02 K, 2000 kPa) was 12.145 ± 0.03 and the relative permittivity (263.02 K, 12000 kPa) was 12.685 ± 0.029. The relative permittivity (263.02 K, 13000 kPa) was 12.733 ± 0.029, the relative permittivity (263.03 K, 3000 kPa) was 12.203 ± 0.03 and the relative permittivity (263.03 K, 4000 kPa) was 12.264 ± 0.03. The relative permittivity (263.03 K, 6000 kPa) was 12.379 ± 0.03, the relative permittivity (263.03 K, 7000 kPa) was 12.431 ± 0.03 and the relative permittivity (263.03 K, 8000 kPa) was 12.485 ± 0.03. The relative permittivity (263.03 K, 10000 kPa) was 12.586 ± 0.029, the relative permittivity (263.03 K, 11000 kPa) was 12.636 ± 0.029 and the relative permittivity (263.03 K, 14000 kPa) was 12.777 ± 0.029. For the same molecule, the relative permittivity (263.03 K, 15000 kPa) was 12.821 ± 0.029, the relative permittivity (263.04 K, 5000 kPa) was 12.319 ± 0.03 and the relative permittivity (263.04 K, 9000 kPa) was 12.536 ± 0.029. It also gave a relative permittivity (274.42 K, 2000 kPa) of 11.141 ± 0.029, a relative permittivity (274.42 K, 3000 kPa) of 11.215 ± 0.029 and a relative permittivity (274.42 K, 4000 kPa) of 11.284 ± 0.029. For the same molecule, the relative permittivity (274.43 K, 5000 kPa) was 11.346 ± 0.029, the relative permittivity (274.43 K, 6000 kPa) was 11.411 ± 0.028 and the relative permittivity (274.43 K, 7000 kPa) was 11.471 ± 0.028. It also gave a relative permittivity (274.43 K, 9000 kPa) of 11.588 ± 0.028, a relative permittivity (274.43 K, 10000 kPa) of 11.644 ± 0.028 and a relative permittivity (274.43 K, 12000 kPa) of 11.749 ± 0.028. The relative permittivity (274.44 K, 8000 kPa) was 11.528 ± 0.028, the relative permittivity (274.44 K, 11000 kPa) was 11.696 ± 0.028 and the relative permittivity (274.44 K, 13000 kPa) was 11.798 ± 0.028. For the same molecule, the relative permittivity (274.44 K, 14000 kPa) was 11.846 ± 0.028, the relative permittivity (274.44 K, 15000 kPa) was 11.895 ± 0.028 and the relative permittivity (283.16 K, 2000 kPa) was 10.568 ± 0.029. For the same molecule, the relative permittivity (283.16 K, 3000 kPa) was 10.641 ± 0.029, the relative permittivity (283.16 K, 4000 kPa) was 10.72 ± 0.028 and the relative permittivity (283.16 K, 5000 kPa) was 10.796 ± 0.028. For the same molecule, the relative permittivity (283.17 K, 6000 kPa) was 10.867 ± 0.028, the relative permittivity (283.17 K, 7000 kPa) was 10.936 ± 0.028 and the relative permittivity (283.17 K, 8000 kPa) was 11.002 ± 0.028. It also gave a relative permittivity (283.17 K, 9000 kPa) of 11.066 ± 0.028, a relative permittivity (283.18 K, 10000 kPa) of 11.125 ± 0.028 and a relative permittivity (283.18 K, 11000 kPa) of 11.183 ± 0.028. For the same molecule, the relative permittivity (283.18 K, 12000 kPa) was 11.239 ± 0.028, the relative permittivity (283.19 K, 13000 kPa) was 11.293 ± 0.028 and the relative permittivity (283.19 K, 14000 kPa) was 11.346 ± 0.028. For the same molecule, the relative permittivity (283.2 K, 15000 kPa) was 11.397 ± 0.027, the relative permittivity (294.1 K, 2000 kPa) was 9.617 ± 0.03 and the relative permittivity (294.1 K, 3000 kPa) was 9.7189 ± 0.029. For the same molecule, the relative permittivity (294.11 K, 4000 kPa) was 9.8137 ± 0.029, the relative permittivity (294.11 K, 5000 kPa) was 9.9019 ± 0.029 and the relative permittivity (294.11 K, 6000 kPa) was 9.9864 ± 0.029. For the same molecule, the relative permittivity (294.11 K, 7000 kPa) was 10.066 ± 0.029, the relative permittivity (294.11 K, 9000 kPa) was 10.213 ± 0.029 and the relative permittivity (294.11 K, 10000 kPa) was 10.281 ± 0.029. The relative permittivity (294.11 K, 11000 kPa) was 10.347 ± 0.029, the relative permittivity (294.11 K, 15000 kPa) was 10.585 ± 0.028 and the relative permittivity (294.12 K, 8000 kPa) was 10.141 ± 0.029. The relative permittivity (294.12 K, 12000 kPa) was 10.409 ± 0.028, the relative permittivity (294.12 K, 13000 kPa) was 10.469 ± 0.028 and the relative permittivity (294.12 K, 14000 kPa) was 10.526 ± 0.028.
